target: T1, human full length HSD11β1 (Homo sapiens, UniProt P28845); assay: In Vitro HSD11β1 Inhibition Assay; assay type: cell-based; settings: CHO cells transiently expressing human HSD11β1; 200 nM cortisone+500 uM NADPH overnight; cortisone to cortisol by LC/MS-MS; read-out: 11βHSD1 (IC50)
T1 construct: transient expression of human full length HSD11β1 expression vector; host or cells: CHO cells, transient transfection
Procedure, shortened: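 Whole-cell assay in CHO cells transiently transfected with full-length human HSD11β1, re-seeded 24 h after transfection. Cells incubated overnight with 200 nM cortisone plus 500 uM NADPH, with or without inhibitor. Cortisone-to-cortisol conversion measured by LC/MS-MS; IC50 (nM) from an 8-point log concentration-inhibition curve.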

T1 sequence (P28845 whole entry): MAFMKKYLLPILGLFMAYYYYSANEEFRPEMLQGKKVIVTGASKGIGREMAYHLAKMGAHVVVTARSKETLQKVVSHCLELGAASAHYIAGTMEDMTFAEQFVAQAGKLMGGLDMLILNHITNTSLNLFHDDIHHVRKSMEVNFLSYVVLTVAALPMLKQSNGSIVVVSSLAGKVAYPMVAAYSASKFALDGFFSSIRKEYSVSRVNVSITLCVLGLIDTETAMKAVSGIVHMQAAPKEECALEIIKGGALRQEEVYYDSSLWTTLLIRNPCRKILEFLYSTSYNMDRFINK

IC50 [nM] | Compound
> 250 | CC(CC(=O)N1C2CC3CC1CC(CC(=O)O)(C3)C2)c1c[nH]c2cccc(-c3cccs3)c12 (stereo not drawn) [Compound 154, (2-{3-[4-(thiophen-2-yl)-1H-indol-3-yl]butanoyl}-2-azatricyclo[3.3.1.1^3,7]dec-5-yl)acetic acid]
> 250 | Cc1cccc2c(C(C)CC(=O)N3C4CC5CC3CC(O)(C5)C4)c[nH]c12 (stereo not drawn) [Compound 78, 1-(5-hydroxy-2-azatricyclo[3.3.1.1^3,7]dec-2-yl)-3-(7-methyl-1H-indol-3-yl)butan-1-one]
100 to 150 | CC(CC(=O)N1C2CC3CC(C2)CC1C3)c1c[nH]c2ccccc12 (stereo not drawn) [Example 17, 1-(2-azatricyclo[3.3.1.1^3,7]dec-2-yl)-3-(1H-indol-3-yl)butan-1-one]
200 to 250 | CC(CC(=O)N1C2CC3CC1CC(O)(C3)C2)c1c[nH]c2cccc(F)c12 (single isomer, unassigned) [Example 28, 3-(4-fluoro-1H-indol-3-yl)-1-(5-hydroxy-2-azatricyclo[3.3.1.1^3,7]dec-2-yl)butan-1-one]
< 100 | CC(CC(=O)N1C2CC3CC1CC(O)(C3)C2)c1c[nH]c2cccc(-c3cccs3)c12 (stereo not drawn) [Compound 153, 1-(5-hydroxy-2-azatricyclo[3.3.1.1^3,7]dec-2-yl)-3-[4-(thiophen-2-yl)-1H-indol-3-yl]butan-1-one]
100 to 150 | CC(CC(=O)N1C2CC3CC1CC(OC(F)F)(C3)C2)c1c[nH]c2cccc(Cl)c12 (stereo not drawn) [Example 39, 3-(4-chloro-1H-indol-3-yl)-1-[5-(difluoromethoxy)-2-azatricyclo[3.3.1.1^7]dec-2-yl]butan-1-one]
> 250 | CC(CC(=O)N1C2CC3CC1CC(C(=O)O)(C3)C2)c1c[nH]c2ccccc12 (stereo not drawn) [Example 61, 2-[3-(1H-indol-3-yl)butanoyl]-2-azatricyclo[3.3.1.1^3,7]decane-5-carboxylic acid]
> 250 | CC(CC(=O)N1C2CC3CC1CC(c1nnn[nH]1)(C3)C2)c1c[nH]c2cccc(C3CC3)c12 (stereo not drawn) [Compound 149, 3-(4-cyclopropyl-1H-indol-3-yl)-1-[5 (1H-tetrazol-5-yl)-2-azatricyclo[3.3.1.1^3,7]dec-2-yl]butan-1-one]
100 to 150 | CC(CC(=O)N1C2CC3(O)CC1CC(F)(C2)C3)c1c[nH]c2cccc(C3CC3)c12 (stereo not drawn) [Compound 213, 3-(4-cyclopropyl-1H-indol-3-yl)-1-(5-fluoro-7-hydroxy-2-azatricyclo[3.3.1.1^3,7]dec-2-yl)butan-1-one]
> 250 | CC(CC(=O)N1C2CC3CC1CC(O)(C3)C2)c1c[nH]c2cccc(F)c12 (single isomer, unassigned) [Example 27, 3-(4-fluoro-1H-indol-3-yl)-1-(5-hydroxy-2-azatricyclo[3.3.1.1^3,7]dec-2-yl)butan-1-one]
> 250 | O=C(CC(c1ccccc1)c1nc2ccccc2s1)N1C2CC3CC1CC(O)(C3)C2 (stereo not drawn) [Compound 107, 3-(1,3-benzothiazol-2-yl)-1-(5-hydroxy-2-azatricyclo[3.3.1.1^3,7]dec-2-yl)-3-phenylpropan-1-one]
> 250 | CC(CC(=O)N1C2CC3CC1CC(O)(C3)C2)c1c[nH]c2cccc(-c3cccs3)c12 (single isomer, unassigned) [Compound 189, 1-(5-hydroxy-2-azatricyclo[3.3.1.1^3,7]dec-2-yl)-3-[4-(thiophen-2-yl)-1H-indol-3-yl]butan-1-one]
> 250 | Cc1cccc2[nH]cc(C(CC(=O)N3C4CC5CC3CC(O)(C5)C4)c3ccccc3)c12 (stereo not drawn) [Example 72, 1-(5-hydroxy-2-azatricyclo[3.3.1.1^3,7′]dec-2-yl)-3-(4-methyl-1H-indol-3-yl)-3-phenylpropan-1-one]
100 to 150 | CC(CC(=O)N1C2CC3CC1CC(O)(C3)C2)c1c[nH]c2cc(Cl)c(F)cc12 (stereo not drawn) [Compound 133, 3-(6-chloro-5-fluoro-1H-indol-3-yl)-1-(5-hydroxy-2-azatricyclo[3.3.1.1^3,7]dec-2-yl)butan-1-one]
> 250 | CC(CC(=O)N1C2CC3CC1CC(O)(C3)C2)c1nc2ccc(Cl)cc2[nH]1 (stereo not drawn) [Compound 202, 3-(6-chloro-1H-benzimidazol-2-yl)-1-(5-hydroxy-2-azatricyclo[3.3.1.1^3,7]dec-2-yl)butan-1-one]
> 250 | O=C(CCc1c[nH]c2ncccc12)N1C2CC3CC1CC(O)(C3)C2 [Example 15, 1-(5-hydroxy-2-azatricyclo[3.3.1.1^3,7]dec-2-yl)-3-(1H-pyrrolo[2,3-b]pyridin-3-yl)propan-1-one]
> 250 | O=C(CC(c1ccccc1)n1nnc2ccccc21)N1C2CC3CC1CC(O)(C3)C2 (stereo not drawn) [Compound 121, 3-(1H-benzotriazol-1-yl)-1-(5-hydroxy-2-azatricyclo[3.3.1.1^3,7]dec-2-yl)-3-phenylpropan-1-one]
> 250 | CC(CC(=O)N1C2CC3CC1CC(C(=O)Nc1ccc(F)cc1)(C3)C2)c1c[nH]c2cccc(Cl)c12 (stereo not drawn) [Example 45, 2-[3-(4-chloro-1H-indol-3-yl)butanoyl]-N-(4-fluorophenyl)-2-azatricyclo[3.3.1.1^3,7]decane-5-carboxamide]

IC50 [nM] | Compound
100 to 150 | CC(CC(=O)N1C2CC3CC1CC(O)(C3)C2)c1c[nH]c2cccc(-c3ccsc3)c12 (stereo not drawn) [Compound 187, 1-(5-hydroxy-2-azatricyclo[3.3.1.1^3,7]dec-2-yl)-3-[4-(thiophen-3-yl)-1H-indol-3-yl]butan-1-one]
< 100 | Cc1ccc2[nH]cc(C(C)CC(=O)N3C4CC5CC3CC(O)(C5)C4)c2c1Cl (single isomer, unassigned) [Compound 175, 3-(4-chloro-5-methyl-1H-indol-3-yl)-1-(5-hydroxy-2-azatricyclo[3.3.1.1^3,7]dec-2-yl)butan-1-one]
> 250 | CC(CC(=O)N1C2CC3CC1CC(O)(C3)C2)c1c[nH]c2ncccc12 (stereo not drawn) [Compound 86, 1-(5-hydroxy-2-azatricyclo[3.3.1.1]dec-2-yl)-3-(1H-pyrrolo[2,3-b]pyridin-3-yl)butan-1-one]
> 250 | CC(CC(=O)N1C2CC3CC1CC(C(=O)O)(C3)C2)c1c[nH]c2cccc(C3CC3)c12 (stereo not drawn) [Example 51, 2-[3-(4-cyclopropyl-1H-indol-3-yl)butanoyl]-2-azatricyclo[3.3.1.1^3,7]decane-5-carboxylic acid]
< 100 | CC(CC(=O)N1C2CC3CC1CC(O)(C3)C2)c1c[nH]c2nccc(C3CC3)c12 (stereo not drawn) [Compound 132, 3-(4-cyclopropyl-1H-pyrrolo[2,3-b]pyridin-3-yl)-1-(5-hydroxy-2-azatricyclo[3.3.1.1^3,7]dec-2-yl)butan-1-one]
> 250 | CC(CC(=O)N1C2CC3CC1CC(O)(C3)C2)c1c(C#N)[nH]c2cccc(C3CC3)c12 (stereo not drawn) [Compound 220, 4-cyclopropyl-3-(4-(5-hydroxy-2-azaadamantan-2-yl)-4-oxobutan-2-yl)-1H-indole-2-carbonitrile]
< 100 | COc1ccc2[nH]cc(C(C)CC(=O)N3C4CC5CC3CC(C)(C5)C4)c2c1 (stereo not drawn) [Compound 227, 3-(5-methoxy-1H-indol-3-yl)-1-(5-methyl-2-azaadamantan-2-yl)butan-1-one]
> 250 | CCCc1cccc2[nH]cc(CCC(=O)N3C4CC5CC3CC(O)(C5)C4)c12 [Compound 128, 1-(5-hydroxy-2-azatricyclo[3.3.1.1^3,7]dec-2-yl)-3-(4-propyl-1H-indol-3-yl)propan-1-one]
100 to 150 | O=C(CC(c1ccccc1)c1c[nH]c2ccccc12)N1C2CC3CC1CC(O)(C3)C2 (stereo not drawn) [Example 67, 1-(5-hydroxy-2-azatricyclo[3.3.1.1^3,7]dec-2-yl)-3-(1H-indol-3-yl)-3-phenylpropan-1-one]
200 to 250 | CC(CC(=O)N1C2CC3CC1CC(C#N)(C3)C2)c1c[nH]c2ccccc12 (stereo not drawn) [Example 65]
> 250 | CC(CC(=O)N1C2CC3CC1CC(c1nnn[nH]1)(C3)C2)c1c[nH]c2cccc(Cl)c12 (stereo not drawn) [Compound 76, 3-(4-chloro-1H-indol-3-yl)-1-[5-(1H-tetrazol-5-yl)-2-azatricyclo[3.3.1.1^3,7]dec-2-yl]butan-1-one]
< 100 | O=C(CC(c1ccc(F)cc1)c1c[nH]c2cccc(F)c12)N1C2CC3CC1CC(O)(C3)C2 (stereo not drawn) [Compound 99, 3-(4-fluoro-1H-indol-3-yl)-3-(4-fluorophenyl)-1-(5-hydroxy-2-azatricyclo[3.3.1.1^3,7]dec-2-yl)propan-1-one]
> 250 | COc1cc2c(C(C)CC(=O)N3C4CC5CC3CC(O)(C5)C4)c[nH]c2cc1Cl (single isomer, unassigned) [Compound 129, 3-(6-chloro-5-methoxy-1H-indol-3-yl)-1-(5-hydroxy-2-azatricyclo[3.3.1.1^3,7]dec-2-yl)butan-1-one]
> 250 | CC(CC(=O)N1C2CC3CC1CC(Br)(C3)C2)c1c[nH]c2ccc(OS(=O)(=O)C(F)(F)F)cc12 (stereo not drawn) [Compound 225, 3-(4-(5-bromo-2-azaadamantan-2-yl)-4-oxobutan-2-yl)-1H-indol-5-yl trifluoromethanesulfonate]
100 to 150 | CC(CC(=O)N1C2CC3CC1CC(O)(C3)C2)c1c[nH]c2cc(F)ccc12 (stereo not drawn) [Compound 79, 3-(6-fluoro-1H-indol-3-yl)-1-(5-hydroxy-2-azatricyclo[3.3.1.1^3,7]dec-2-yl)butan-1-one]
150 to 200 | CC(C)Oc1cccc2[nH]cc(C(C)CC(=O)N3C4CC5CC3CC(F)(C5)C4)c12 (stereo not drawn) [Compound 182, 1-(5-fluoro-2-azatricyclo[3.3.1.1^3,7]dec-2-yl)-3-[4-(propan-2-yloxy)-1H-indol-3-yl]butan-1-one]
150 to 200 | CC(CC(=O)N1C2CC3CC1CC(Cl)(C3)C2)c1c[nH]c2cccc(F)c12 (stereo not drawn) [Example 32, 1-(5-chloro-2-azatricyclo[3.3.1.1^3,7]dec-2-yl)-3-(4-fluoro-1H-indol-3-yl)butan-1-one]
100 to 150 | Cc1cccc2[nH]cc(CCC(=O)N3C4CC5CC(C4)CC3C5)c12 [Example 2, 1-(2-azatricyclo[3.3.1.1^3,7]dec-2-yl)-3-(4-methyl-1H-indol-3-yl)propan-1-one]
